How the values were obtained:
human mTOR = target: T1, human mTOR (Homo sapiens, UniProt P42345); test: mTOR Kinase Activity Inhibition Test; format: biochemical; details: His-tagged mTOR (1362C), biotinylated peptide substrate, ATP, 3 hours at room temperature, fluorescence resonance energy transfer 665 nm/620 nm; read-out: IC50 value of mTOR enzyme inhibitory activity
T1 construct: the portion corresponding to 1362-2549aa at the C terminus of human mTOR; made in house
Method in brief: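 Purified His-tagged human mTOR (1362–2549aa, from HEK293) was used with biotinylated peptide (8 μg/mL in enzyme solution) in HEPES pH 7.5 with 20 mM MnCl2. Compounds were diluted in 20 μM ATP solution, and the reaction ran 3 h at RT. Phospho-S6K(Thr389) HTRF was read as the 665/620 nm ratio, and IC50 came from % inhibition versus controls.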

WM-266-4 cells = test: Cell Proliferation Inhibitory Test; format: cell-based; details: Homo sapiens, 72 h, cultured three days with test compound, MTT, read-out: 50% cell proliferation inhibitory activity (GI50 value)
Method in brief: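 Cells cultured overnight, then exposed to serially diluted compound for three days; cell amount read by MTT. GI50 solved from 100×[(T−T0)/(C−T0)]=50, with T0 the value at time of compound addition and C the untreated three-day control.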

T1 sequence (P42345 1362-2549): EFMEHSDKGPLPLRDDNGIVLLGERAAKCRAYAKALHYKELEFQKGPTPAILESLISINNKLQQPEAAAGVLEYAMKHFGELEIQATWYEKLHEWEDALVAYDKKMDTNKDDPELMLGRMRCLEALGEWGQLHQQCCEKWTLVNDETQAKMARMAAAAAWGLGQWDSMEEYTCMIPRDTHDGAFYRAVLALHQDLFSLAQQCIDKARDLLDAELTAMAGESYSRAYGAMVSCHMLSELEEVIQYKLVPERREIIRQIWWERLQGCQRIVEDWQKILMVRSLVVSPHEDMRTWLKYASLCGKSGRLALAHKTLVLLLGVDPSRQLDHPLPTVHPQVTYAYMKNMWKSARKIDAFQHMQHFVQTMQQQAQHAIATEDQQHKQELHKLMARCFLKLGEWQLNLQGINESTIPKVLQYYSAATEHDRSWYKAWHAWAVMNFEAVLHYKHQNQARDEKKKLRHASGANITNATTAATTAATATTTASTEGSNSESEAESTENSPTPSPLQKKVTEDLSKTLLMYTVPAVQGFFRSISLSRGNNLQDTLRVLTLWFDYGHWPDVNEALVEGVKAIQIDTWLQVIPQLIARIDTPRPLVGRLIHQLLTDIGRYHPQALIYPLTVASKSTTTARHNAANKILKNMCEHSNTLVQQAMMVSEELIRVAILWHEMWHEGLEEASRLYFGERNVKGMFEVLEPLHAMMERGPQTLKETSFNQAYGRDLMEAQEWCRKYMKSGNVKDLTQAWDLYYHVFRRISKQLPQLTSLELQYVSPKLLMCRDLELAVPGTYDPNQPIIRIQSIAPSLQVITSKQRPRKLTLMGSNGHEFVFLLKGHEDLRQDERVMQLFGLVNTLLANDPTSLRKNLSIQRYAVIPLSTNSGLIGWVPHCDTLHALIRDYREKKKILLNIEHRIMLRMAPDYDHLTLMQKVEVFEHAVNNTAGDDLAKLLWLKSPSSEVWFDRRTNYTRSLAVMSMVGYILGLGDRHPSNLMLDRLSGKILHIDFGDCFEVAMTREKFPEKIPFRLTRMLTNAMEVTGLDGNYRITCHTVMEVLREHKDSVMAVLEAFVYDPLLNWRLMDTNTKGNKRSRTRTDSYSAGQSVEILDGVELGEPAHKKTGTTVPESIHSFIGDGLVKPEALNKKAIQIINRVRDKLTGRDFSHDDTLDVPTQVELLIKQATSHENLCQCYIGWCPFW

SMILES	IC50 (human mTOR)	GI50 (WM-266-4 cells)
O=c1[nH]c2ncc(-c3cnc4[nH]ccc4c3)cc2n1C[C@@H]1COCCO1 [Example 39, 1-[(2R)-1,4-Dioxan-2-ylmethyl]-6-(1H-pyrrolo[2,3-b]pyridin-5-yl)-1,3-dihydro-2H-imidazo[4,5-b]pyridin-2-one]	< 0.05 µM	< 3 µM
O=c1[nH]c2ncc(-c3cnc4[nH]ccc4c3)cc2n1C[C@H]1COCCO1 [Example 40, 1-[(2S)-1,4-Dioxan-2-ylmethyl]-6-(1H-pyrrolo[2,3-b]pyridin-5-yl)-1,3-dihydro-2H-imidazo[4,5-b]pyridin-2-one]	< 0.05 µM	< 3 µM
O=c1[nH]c2ncc(-c3cnc4[nH]cc(Cl)c4c3)cc2n1C[C@H]1COCCO1 [Example 41, 6-(3-Chloro-1H-pyrrolo[2,3-b]pyridin-5-yl)-1-[(2S)-1,4-dioxan-2-ylmethyl]-1,3-dihydro-imidazo[4,5-b]pyridin-2-one]	< 0.05 µM	< 3 µM
Cc1c(-c2cnc3[nH]c(=O)n(C[C@H]4COCCO4)c3c2)cnc2[nH]ccc12 [Example 42, 1-[(2S)-1,4-Dioxan-2-ylmethyl]-6-(4-methyl-1H-pyrrolo[2,3-b]pyridin-5-yl)-1,3-dihydro-imidazo[4,5-b]pyridin-2-one]	< 0.05 µM	< 3 µM
Cc1c[nH]c2ncc(-c3cnc4[nH]c(=O)n(C[C@H]5COCCO5)c4c3)cc12 [Example 43, 1-[(2S)-1,4-Dioxan-2-ylmethyl]-6-(3-methyl-1H-pyrrolo[2,3-b]pyridin-5-yl)-1,3-dihydro-imidazo[4,5-b]pyridin-2-one]	< 0.05 µM	< 3 µM
Cc1nc2[nH]c(=O)n(C[C@H]3COCCO3)c2cc1-c1cnc2[nH]ccc2c1 [Example 44, 1-[(2S)-1,4-Dioxan-2-ylmethyl]-5-methyl-6-(1H-pyrrolo[2,3-b]pyridin-5-yl)-1,3-dihydro-imidazo[4,5-b]pyridin-2-one]	< 0.05 µM	< 3 µM
Cc1nc2[nH]c(=O)n(C[C@H]3COCCO3)c2cc1-c1cnc2[nH]ccc2c1C [Example 45, 1-[(2S)-1,4-Dioxan-2-ylmethyl]-5-methyl-6-(4-methyl-1H-pyrrolo[2,3-b]pyridin-5-yl)-1,3-dihydro-imidazo[4,5-b]pyridin-2-one]	< 0.05 µM	< 3 µM
Cc1nc2[nH]c(=O)n(C[C@H]3COCCO3)c2cc1-c1cnc2[nH]cc(Cl)c2c1 [Example 46, 6-(3-Chloro-1H-pyrrolo[2,3-b]pyridin-5-yl)-1-[(2S)-1,4-dioxan-2-ylmethyl]-5-methyl-1,3-dihydro-imidazo[4,5-b]pyridin-2-one]	< 0.05 µM	< 3 µM
Cc1nc2[nH]c(=O)n(C[C@H]3COCCO3)c2cc1-c1cnc2[nH]cc(C)c2c1 [Example 47, 1-[(2S)-1,4-Dioxan-2-ylmethyl]-5-methyl-6-(3-methyl-1H-pyrrolo[2,3-b]pyridin-5-yl)-1,3-dihydro-imidazo[4,5-b]pyridin-2-one]	< 0.05 µM	< 3 µM
O=c1[nH]c2ncc(-c3cnc4[nH]ccc4c3)cc2n1CCC1=CCOCC1 [Example 48, 1-[2-(3,6-Dihydro-2H-pyran-4-yl)ethyl]-6-(1H-pyrrolo[2,3-b]pyridin-5-yl)-1,3-dihydro-2H-imidazo[4,5-b]pyridin-2-one]	< 0.05 µM	< 3 µM
O=c1[nH]c2ncc(-c3ccc4[nH]ccc4c3)cc2n1CCC1=CCOCC1 [Example 49, 1-[2-(3,6-Dihydro-2H-pyran-4-yl)ethyl]-6-(1H-indol-5-yl)-1,3-dihydro-2H-imidazo[4,5-b]pyridin-2-one]	< 0.05 µM	< 3 µM
CC(Cn1c(=O)[nH]c2ncc(-c3cnc4[nH]ccc4c3)cc21)C1CCOCC1 (centres unmarked) [Example 50, 6-(1H-Pyrrolo[2,3-b]pyridin-5-yl)-1-[2-(tetrahydro-2H-pyran-4-yl)propyl]-1,3-dihydro-2H-imidazo[4,5-b]pyridin-2-one]	< 0.05 µM	< 3 µM
O=c1[nH]c2ncc(-c3cnc4[nH]ccc4c3)cc2n1CC(F)C1CCOCC1 (centres unmarked) [Example 51, 1-[2-Fluoro-2-(tetrahydro-2H-pyran-4-yl)ethyl]-6-(1H-pyrrolo[2,3-b]pyridin-5-yl)-1,3-dihydro-2H-imidazo[4,5-b]pyridin-2-one]	< 0.05 µM	< 3 µM
C[C@@H]1CN(CCn2c(=O)[nH]c3ncc(-c4ccc5[nH]ccc5c4)cc32)C[C@H](C)O1 [Example 52, 1-{2-[cis-2,6-Dimethylmorpholin-4-yl]ethyl}-6-(1H-indol-5-yl)-1,3-dihydro-2H-imidazo[4,5-b]pyridin-2-one]	< 0.05 µM	< 3 µM
C[C@@H]1CN(CCn2c(=O)[nH]c3ncc(-c4cnc5[nH]ccc5c4)cc32)C[C@H](C)O1 [Example 53, 1-{2-[cis-2,6-Dimethylmorpholin-4-yl]ethyl}-6-(1H-pyrrolo[2,3-b]pyridin-5-yl)-1,3-dihydro-2H-imidazo[4,5-b]pyridin-2-one]	< 0.05 µM	< 3 µM
C[C@H]1COCCN1CCn1c(=O)[nH]c2ncc(-c3cnc4[nH]ccc4c3)cc21 [Example 54, 1-{2-[(35)-3-Methylmorpholin-4-yl]ethyl}-6-(1H-pyrrolo[2,3-b]pyridin-5-yl)-1,3-dihydro-2H-imidazo[4,5-b]pyridin-2-one]	< 0.05 µM	< 3 µM
O=c1[nH]c2ncc(-c3cnc4[nH]ccc4c3)cc2n1CCN1CCOCC1 [Example 55, 1-(2-Morpholin-4-ylethyl)-6-(1H-pyrrolo[2,3-b]pyridin-5-yl)-1,3-dihydro-2H-imidazo[4,5-b]pyridin-2-one]	< 0.05 µM	< 3 µM
CN1CCC(Cn2c(=O)[nH]c3ncc(-c4cnc5[nH]ccc5c4)cc32)CC1 [Example 56, 1-[(1-Methylpiperidin-4-yl)methyl]-6-(1H-pyrrolo[2,3-b]pyridin-5-yl)-1,3-dihydro-2H-imidazo[4,5-b]pyridin-2-one]	0.1 to 5 µM	3 to 25 µM
O=c1[nH]c2ncc(-c3cnc4[nH]ccc4c3)cc2n1CCN1CCNCC1 [Example 57, 1-[2-piperazin-1-ylethyl]-6-(1H-pyrrolo[2,3-b]pyridin-5-yl)-1,3-dihydro-2H-imidazo[4,5-b]pyridin-2-one]	0.05 to 0.1 µM	3 to 25 µM
CN1CCN(CCn2c(=O)[nH]c3ncc(-c4cnc5[nH]ccc5c4)cc32)CC1 [Example 58, 1-[2-(4-Methylpiperazin-1-yl)ethyl]-6-(1H-pyrrolo[2,3-b]pyridin-5-yl)-1,3-dihydro-2H-imidazo[4,5-b]pyridin-2-one]	< 0.05 µM	< 3 µM
CC(=O)N1CCN(CCn2c(=O)[nH]c3ncc(-c4cnc5[nH]ccc5c4)cc32)CC1 [Example 59, 1-[2-(4-Acetylpiperazin-1-yl)ethyl]-6-(1H-pyrrolo[2,3-b]pyridin-5-yl)-1,3-dihydro-2H-imidazo[4,5-b]pyridin-2-one]	< 0.05 µM	3 to 25 µM
CS(=O)(=O)N1CCN(CCn2c(=O)[nH]c3ncc(-c4cnc5[nH]ccc5c4)cc32)CC1 [Example 60, 1-{2-[4-(Methylsulfonyl)piperazin-1-yl]ethyl}-6-(1H-pyrrolo[2,3-b]pyridin-5-yl)-1,3-dihydro-2H-imidazo[4,5-b]pyridin-2-one]	< 0.05 µM	< 3 µM
